Laboratory results taken from patent US10512670B2, “Pharmaceutical composition for preventing or treating hair loss comprising chemokine (C-X-C motif) ligand 1 (CXCL1) protein or CXCL1 protein and minoxidil as active ingredient” (SCM LIFESCIENCE CO., LTD., priority 2016, dated 2019).

Experiments:
C3H/HeN mouse [1] = assay: hair generation test in hair-removed mouse, application of minoxidil and CXCL1 protein to back skin; format: in vivo; conditions: applied to back skin for 14 days (FIG. 5); PBS-alone 20 mg
Procedure: In addition, in the case of combining and using the minoxidil and the CXCL1 protein which were commercialized as a hair generation agent, an experiment for verifying whether the hair generation effect may be better was performed. First, for an experiment for hair regeneration, long hair of a 7-week-old C3H/HeN mouse and the like was shortly cut by using a hair cutting machine and thereafter, the hair was completely removed by using a hair removal agent. After the hair-removed mouse was stabilized for one day, a recombinant protein CXCL1 was mixed with 2% minoxidil (Women's Rogaine, Johnson & Johnson Healthcare Products, USA) to be 1 μg/ml and 10 μg/ml, respectively. The mixture of the minoxidil and the CXCL1 protein was applied to the back skin of the hair-removed mouse for 14 days by […] per day. As a control, a PBS-alone applied group and a 2% minoxidil-alone treated group were set. The hair generation in the back of the mouse was tracked and observed for 14 days and newly generated hair was obtained again and the weight was measured, and the result was illustrated in FIGS. 4 and 5.

C3H/HeN mouse [2] = assay: hair generation test in hair-removed mouse, subcutaneous injection of CXCL1 protein; format: in vivo
Procedure: For a test for verifying a hair generation effect, the back of a 7-week-old C3H/HeN mouse was stabilized by removing hair by using a hair removal agent. After one day, 100 ng/ml of a human chemokine (C-X-C motif) ligand 1 (CXCL1) (SEQ ID NO:1) protein was subcutaneously injected to the back once. As a control, phosphate buffered saline (PBS) including 0.1% BSA at the same volume lysed with the CXCL1 protein was subcutaneously injected. Thereafter, the hair generation of the back of the hair-removed mouse was traced and observed for 15 days. A photograph of tracing and observing the back of the mouse with hair generation was illustrated in FIG. 2.
Further, after 15 days, the hair of the back of the mouse with newly hair generation was removed by using a knife and then the result of measuring the weight of the obtained hair was illustrated in FIG. 3.

[3] = system: human dermal papilla cell (DPC); assay: human dermal papilla cell (DPC) proliferation test; format: cell-based; conditions: 1 ng/ml or 5 ng/ml treated to DPC, 40 hrs, compared to cells without CXCL1 protein (FIG. 1)
Procedure: A human dermal papilla cell (DPC) proliferation test which is a representative in vitro cell test system for measuring hair proliferation was performed. 1 ng/ml or 5 ng/ml of the CXCL1 protein in Example 1 was treated to DPC, proliferation for 40 hrs was measured, and the result was illustrated in FIG. 1.

Row | Molecule | amount of newly generated hair (C3H/HeN mouse [1]) | hair weight (C3H/HeN mouse [2]; 100 ng/ml subcutaneously injected once, newly generated hair after 15 days (FIG. 3), control 40 mg) [mg] | hair generation of the back (photograph) (C3H/HeN mouse [2]; 100 ng/ml subcutaneously injected to the back once, observed for 15 days, compared with control (FIG. 2)) | new hair relative to PBS-administered group (C3H/HeN mouse [2]; CXCL1 protein-alone administration) | cell proliferation [3]
1 | Nc1cc(N2CCCCC2)nc(N)[n+]1[O-] [minoxidil] | about 30 mg | – | – | – | –
2 | chemokine (C-X-C motif) ligand 1 (CXCL1) [CXCL1 protein] | – | 80 | hair generation was more excellent | about two times greater | cell proliferation was increased
